Test results: patent US10577395B2 (priority 2014, dated 2020)
In brackets after ≈: the same amount, converted by molar mass.

How the values were obtained:
[1] = system: vancomycin-sensitive Staphylococcus aureus (VSSA strain ATCC 25923); test: Antimicrobial assay, MIC, vancomycin-sensitive S. aureus; assay type: cell-based; conditions: Staphylococcus aureus, ATCC25923; ATCC 25923; read-out: MIC, sensitive S. aureus
Protocol: (§1) Assays were carried out following the methods of Clinical and Laboratory Standards Institute; Methods for Dilution Antimicrobial Susceptibility Tests for Bacteria That Grow Aerobically; Approved Standard, […].; CLSI document M07-A8; Clinical and Laboratory Standards Institute: Wayne, Pa., 2009.
(§2) This diluted bacterial stock solution was then inoculated into a well of a V-shaped 96-well glass coated microtiter plate, supplemented with serial diluted aliquots of the antibiotic solution DMSO (4 μL), to achieve a total assay volume of 0.1 mL. The plate was then incubated at 37° C. for 18 hours, after which minimal inhibitory concentrations (MICs) were determined by monitoring the cell growth (observed as a pellet) in the wells. The lowest concentration of antibiotic (in μg/mL) capable of eliminating the cell growth in the wells is reported as the MIC.

[2] = system: methicillin and oxacillin-resistant Staphylococcus aureus subsp. aureus (MRSA strain ATCC 43300); test: Antimicrobial assay, MIC, MRSA; assay type: cell-based; conditions: for MIC: Staphylococcus aureus, read-out: MIC, MRSA S. aureus
Protocol: as §1, §2

[3] = system: Enterococcus faecium (VanA VRE, ATCC BAA-2317); test: Antimicrobial assay, MIC, VanA E. faecium; assay type: cell-based; conditions: for MIC: Enterococcus faecium, read-out: MIC, VanA E. faecium
Protocol: as §1, §2

[4] = system: vancomycin-resistant Enterococcus faecalis (VanA VRE, BM4166); test: microbe, parasite or virus in culture; assay type: cell-based; conditions: for MIC: Enterococcus faecalis, VRE, read-out: MIC, VanA E. faecalis
Protocol: as §1, §2

[5] = system: vancomycin-resistant Enterococcus faecalis (VanB VRE, strain ATCC 51299); test: microbe, parasite or virus in culture; assay type: cell-based; conditions: for MIC: Enterococcus faecalis, read-out: MIC, VanB E. faecalis
Protocol: as §1, §2

VanA VRE = test: Antimicrobial assay, MIC for VanA VRE; assay type: cell-based, E. faecalis and E. faecium
Protocol: as §1, §2

Q: What does the source list for `CN[C@H](CC(C)C)C(=O)N[C@H]1C(=O)N[C@@H](CC(N)=O)C(=O)N[C@H]2C(=S)NC3C(=O)N[C@H](C(=O)N[C@H](CO)c4cc(O)cc(O)c4-c4cc3ccc4O)[C@H](O)c3ccc(c(Cl)c3)Oc3cc2cc(c3OC2OC(CO)C(O)[C@H](O)[C@@H]2O[C@H]2CC(C)(N)[C@H](O)[C@H](C)O2)Oc2ccc(cc2Cl)[C@H]1O` (stereo partly shown) [Compound 24]?
A: MIC [1]: > 32 µg/mL; MIC [2]: > 32 µg/mL; MIC [3]: > 32 µg/mL; MIC [4]: > 32 µg/mL; MIC [5]: > 32 µg/mL

Q: Which results are given for `CN[C@H](CC(C)C)C(=O)N[C@H]1C(=O)N[C@@H](CC(N)=O)C(=O)N[C@H]2C(=N)NC3C(=O)N[C@H](C(=O)N[C@H](CO)c4cc(O)cc(O)c4-c4cc3ccc4O)[C@H](O)c3ccc(c(Cl)c3)Oc3cc2cc(c3OC2OC(CO)C(O)[C@H](O)[C@@H]2O[C@H]2CC(C)(N)[C@H](O)[C@H](C)O2)Oc2ccc(cc2Cl)[C@H]1O` (stereo partly shown) [Compound 25]?
A: MIC [3]: 2 µg/mL (≈ 1.39 µM); MIC [4]: 2 µg/mL (≈ 1.39 µM)

Q: With `CN[C@H](CC(C)C)C(=O)N[C@H]1C(=O)N[C@@H](CC(N)=O)C(=O)N[C@H]2C(=O)NC3C(=O)N[C@H](C(=O)N[C@H](CO)c4cc(O)cc(O)c4-c4cc3ccc4O)[C@H](O)c3ccc(c(Cl)c3)Oc3cc2cc(c3OC2OC(CO)C(O)[C@H](O)[C@@H]2O[C@H]2CC(C)(NCc3ccc(-c4ccc(Cl)cc4)cc3)[C@H](O)[C@H](C)O2)Oc2ccc(cc2Cl)[C@H]1O` (stereo partly shown) [Compound 26] as the compound, how does the MIC [1] read?
A: The MIC was 0.03 µg/mL (≈ 0.0183 µM).

Q: And the MIC [2]?
A: Its MIC is 0.03 µg/mL (≈ 0.0183 µM).

Q: And the MIC [3]?
A: The MIC was 4 µg/mL (≈ 2.45 µM).

Q: What about the MIC [4] of the same compound?
A: Its MIC is 2 µg/mL (≈ 1.22 µM).

Q: And the MIC [5]?
A: The MIC was 0.13 µg/mL (≈ 0.0795 µM).

Q: Which results are given for `CN[C@H](CC(C)C)C(=O)N[C@H]1C(=O)N[C@@H](CC(N)=O)C(=O)N[C@H]2C(=S)NC3C(=O)N[C@H](C(=O)N[C@H](CO)c4cc(O)cc(O)c4-c4cc3ccc4O)[C@H](O)c3ccc(c(Cl)c3)Oc3cc2cc(c3OC2OC(CO)C(O)[C@H](O)[C@@H]2O[C@H]2CC(C)(NCc3ccc(-c4ccc(Cl)cc4)cc3)[C@H](O)[C@H](C)O2)Oc2ccc(cc2Cl)[C@H]1O` (stereo partly shown) [Compound 27]?
A: MIC [1]: 4 µg/mL (≈ 2.42 µM); MIC [2]: 8 µg/mL (≈ 4.84 µM); MIC [3]: 4 µg/mL (≈ 2.42 µM); MIC [4]: 8 µg/mL (≈ 4.84 µM); MIC [5]: 4 µg/mL (≈ 2.42 µM)

Q: Which results are given for `CN[C@H](CC(C)C)C(=O)N[C@H]1C(=O)N[C@@H](CC(N)=O)C(=O)N[C@H]2C(=N)NC3C(=O)N[C@H](C(=O)N[C@H](CO)c4cc(O)cc(O)c4-c4cc3ccc4O)[C@H](O)c3ccc(c(Cl)c3)Oc3cc2cc(c3OC2OC(CO)C(O)[C@H](O)[C@@H]2O[C@H]2CC(C)(NCc3ccc(-c4ccc(Cl)cc4)cc3)[C@H](O)[C@H](C)O2)Oc2ccc(cc2Cl)[C@H]1O` (stereo partly shown) [Compound 28]?
A: MIC [1]: 0.13 µg/mL (≈ 0.0795 µM); MIC [2]: 0.13 µg/mL (≈ 0.0795 µM); MIC [3]: 0.02 µg/mL (≈ 0.0122 µM); MIC [4]: 0.02 µg/mL (≈ 0.0122 µM); MIC [5]: 0.06 µg/mL (≈ 0.0367 µM)

Q: For “CBP-[Ψ[CH2NH]Tpg^4]vancomycin [Compound 17]”, which “MIC, MRSA S. aureus” value ([2]; ATCC 43300) is on record?
A: Its value is 0.25 µg/mL.

Q: What about the “MIC, MRSA S. aureus, serum concentration 10%” value ([2]; ATCC 43300, 10%) of the same compound?
A: The value was 0.25 µg/mL.

Q: And the “MIC, MRSA S. aureus, serum concentration 25%” value ([2]; ATCC 43300, 25%)?
A: Its value is 0.5 µg/mL.

Q: What about the “MIC, MRSA S. aureus, serum concentration 100%” value ([2]; ATCC 43300, 100%) of the same compound?
A: The value was 1 µg/mL.

Q: And the “MIC, VanA E. faecium” value ([3]; ATCC BAA-2317)?
A: The value was 0.06 µg/mL.

Q: And the “MIC, Van A E. faecium, serum concentration 10%” value ([3]; ATCC BAA-2317, 10%)?
A: The value was 0.06 µg/mL.

Q: And the “MIC, Van A E. faecium, serum concentration 25%” value ([3]; ATCC BAA-2317, 25%)?
A: Its value is 0.13 µg/mL.

Q: And the “MIC, Van A E. faecium, serum concentration 100%” value ([3]; ATCC BAA-2317, 100%)?
A: Its value is 0.5 µg/mL.

Q: And the “MIC, VanA E. faecalis” value ([4]; BM 4166)?
A: Its value is 0.13 µg/mL.

Q: What about the “MIC, Van A E. faecalis, serum concentration 10%” value ([4]; BM 4166, 10%) of the same compound?
A: Its value is 0.13 µg/mL.

Q: And the “MIC, Van A E. faecalis, serum concentration 25%” value ([4]; BM 4166, 25%)?
A: Its value is 0.26 µg/mL.

Q: What about the “MIC, Van A E. faecalis, serum concentration 100%” value ([4]; BM 4166, 100%) of the same compound?
A: The value was 0.5 µg/mL.

Q: What about the “MIC, VanB E. faecalis” value ([5]; ATCC 51299) of the same compound?
A: Its value is 0.5 µg/mL.

Q: What about the “MIC, Van B E. faecalis, serum concentration 10%” value ([5]; ATCC 51299, 10%) of the same compound?
A: The value was 0.5 µg/mL.

Q: And the “MIC, Van B E. faecalis, serum concentration 25%” value ([5]; ATCC 51299, 25%)?
A: The value was 1 µg/mL.

Q: And the “MIC, Van B E. faecalis, serum concentration 100%” value ([5]; ATCC 51299, 100%)?
A: Its value is 2 µg/mL.

Q: And the “improvement in activity against VanA VRE on introduction of the (4-chlorobiphenyl)methyl group” value (VanA VRE; relative to the analogue without CBP group)?
A: The value was 100 fold.

Q: What about the “MIC against VanA VRE” value (VanA VRE; stated for VanA VRE) of the same compound?
A: The value was 0.06 to 0.13 µg/mL.
